Structures can show the parent of a compound that is named as a salt.
Target: T1, human H1 receptor (Homo sapiens, UniProt P35367)
T1 construct: expressed in transfected cells
Assay: Histamine H1 functional antagonist assay: determination of antagonist duration (washout, FLIPR)
Assay type: cell-based
Details: at one or more time points after washout
Method: 1. Generation of Histamine H1 Cell Line The human H1 receptor is cloned using known procedures described in the literature [Biochem. Biophys. Res. Commun., 201(2):894 (1994)]. Chinese hamster ovary (CHO) cells stably expressing the human H1 receptor are generated according to known procedures described in the literature [Br. J. Pharmacol., 117(6):1071 (1996)].
To determine the antagonist duration, cells are cultured overnight in non-coated black-walled clear bottom 96-well tissue culture plates, are washed with PBS and are incubated with a concentration of antagonist chosen to give an approximate DR in the range 30-300. Following the 30 min antagonist incubation period, the cells are washed two or three times with 200 μl of PBS and then 100 μl Tyrodes buffer is added to each well to initiate antagonist dissociation. Following incubation for predetermined times, typically 30-270 min at 37° C., the cells are then washed again with 200 μl PBS and are incubated with 100 Tyrodes buffer containing Brilliant Black, probenecid and Fluo-4 for 45 min at 37° C., as described above. After this period, the cells are challenged with histamine in the FLIPR™ as described above. The dose ratio at each time point is used to determine the fractional H1 receptor occupancy by the following equation: fractional receptor occupancy=(DR-1)/DR. The decrease in receptor occupancy over time approximates to a straight line and is analysed by linear regression. The slope of this straight line fit is used as an index of the dissociation rate of the antagonist. The dose ratios for antagonist treated cells and for antagonist treated and washed cells at each time point are used to calculate a relative dose ratio (rel DR) which is also used as an index of antagonist duration. Antagonists with long duration of action produce rel DR values close to 1, and antagonists with short duration of action produce rel DR values that approaches the dose ratio value obtained for antagonist treatment alone.

T1 sequence (P35367 whole entry): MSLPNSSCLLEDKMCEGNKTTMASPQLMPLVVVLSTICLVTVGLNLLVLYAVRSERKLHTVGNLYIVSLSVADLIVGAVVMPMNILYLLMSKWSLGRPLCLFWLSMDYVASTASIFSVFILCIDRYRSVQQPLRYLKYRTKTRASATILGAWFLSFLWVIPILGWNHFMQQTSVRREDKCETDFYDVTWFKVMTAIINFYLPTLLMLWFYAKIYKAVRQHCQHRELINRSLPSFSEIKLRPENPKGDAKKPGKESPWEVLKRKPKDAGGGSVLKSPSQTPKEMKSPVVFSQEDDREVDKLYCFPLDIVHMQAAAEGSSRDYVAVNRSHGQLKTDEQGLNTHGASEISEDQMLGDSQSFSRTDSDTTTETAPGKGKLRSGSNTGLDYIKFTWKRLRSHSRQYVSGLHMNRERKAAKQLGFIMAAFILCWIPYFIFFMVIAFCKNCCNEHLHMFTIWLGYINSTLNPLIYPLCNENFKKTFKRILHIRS

Row | SMILES | duration of action compared with azelastine in the histamine H1 functional antagonist assay
1 | O=C(CCN1CCC[C@@H]1Cn1nc(Cc2ccc(Cl)cc2)c2ccccc2c1=O)NCC(F)(F)F [Example 4, 3-((2R)-2-{[4-[(4-chlorophenyl)methyl]-1-oxo-2(1H)-phthalazinyl]methyl}-1-pyrrolidinyl)-N-(2,2,2-trifluoroethyl)propanamide] | longer duration of action than azelastine
2 | COCCC(=O)NCCCN1CCC[C@@H]1Cn1nc(Cc2ccc(Cl)cc2)c2ccccc2c1=O [Example 42, N-[3-((2R)-2-{[4-[(4-Chlorophenyl)methyl]-1-oxo-2(1H)-phthalazinyl]methyl}-1-pyrrolidinyl)propyl]-3-(methyloxy)propanamide, trifluoroacetate] | longer duration of action than azelastine
3 | CC(C)(C)C(=O)NCCCN1CCC[C@@H]1Cn1nc(Cc2ccc(Cl)cc2)c2cnccc2c1=O.O=C(O)C(F)(F)F [Example 80, N-[3-((2R)-2-{[4-[(4-chlorophenyl)methyl]-1-oxopyrido[3,4-d]pyridazin-2(1H)-yl]methyl}-1-pyrrolidinyl)propyl]-2,2-dimethylpropanamide, trifluoroacetate] | longer duration of action than azelastine
4 | CC(C)(C)C(=O)NCCN1CCC[C@@H]1Cn1nc(Cc2ccc(Cl)cc2)c2ccccc2c1=O.O=C(O)C(F)(F)F [Example 38, N-[2-((2R)-2-{[4-[(4-chlorophenyl)methyl]-1-oxo-2(1H)-phthalazinyl]methyl}-1-pyrrolidinyl)ethyl]-2,2-dimethylpropanamide, trifluoroacetate] | longer duration of action than azelastine
5 | CCCNC(=O)CCCN1CCC[C@@H]1Cn1nc(Cc2ccc(Cl)cc2)c2ccccc2c1=O.Cl [Example 26, 4-((2R)-2-{[4-[(4-Chlorophenyl)methyl]-1-oxo-2(1H)-phthalazinyl]methyl}-1-pyrrolidinyl)-N-propylbutanamide, hydrochloride] | longer duration of action than azelastine
6 | COCC(=O)NCCN1CCC[C@@H]1Cn1nc(Cc2ccc(Cl)cc2)c2ccccc2c1=O.O=C(O)C(F)(F)F [Example 39, N-[2-((2R)-2-{[4-[(4-chlorophenyl)methyl]-1-oxo-2(1H)-phthalazinyl]methyl}-1-pyrrolidinyl)ethyl]-2-(methyloxy)acetamide, trifluoroacetate] | longer duration of action than azelastine
7 | CC(C)(C)NC(=O)CN1CCCC1Cn1nc(Cc2ccc(Cl)cc2)c2ccccc2c1=O.O=C(O)C(F)(F)F [Example 30, 2-((2R)-2-{[4-[(4-chlorophenyl)methyl]-1-oxo-2(1H)-phthalazinyl]methyl}-1-pyrrolidinyl)-N-(1,1-dimethylethyl) acetamide, trifluoroacetate] | longer duration of action than azelastine
8 | O=C(CCN1CCC[C@@H]1Cn1nc(Cc2ccc(Cl)cc2)c2ccccc2c1=O)NCC(F)F.O=CO [Example 6, formic acid-3-((2R)-2-{[4-[(4-chlorophenyl)methyl]-1-oxo-2(1H)-phthalazinyl]methyl}-1-pyrrolidinyl)-N-(2,2-difluoroethyl)propanamide (1:1)] | longer duration of action than azelastine
9 | O=C(CCN1CCC[C@@H]1Cn1nc(Cc2ccc(Cl)cc2)c2ccccc2c1=O)NCCF.O=C(O)C(F)(F)F [Example 1, 3-((2R)-2-{[4-[(4-Chlorophenyl)methyl]-1-oxo-2(1H)-phthalazinyl]methyl}-1-pyrrolidinyl)-N-(2-fluoroethyl)propanamide, trifluoroacetate] | longer duration of action than azelastine
10 | CC(C)C(=O)NCCN1CCC[C@@H]1Cn1nc(Cc2ccc(Cl)cc2)c2ccccc2c1=O.O=C(O)C(F)(F)F [Example 41, N-[2-((2R)-2-{[4-[(4-chlorophenyl)methyl]-1-oxo-2(1H)-phthalazinyl]methyl}-1-pyrrolidinyl)ethyl]-2-methylpropanamide, trifluoroacetate] | longer duration of action than azelastine
11 | O=C(CCN1CCC[C@@H]1Cn1nc(Cc2ccc(Cl)cc2)c2ccccc2c1=O)N1CCCCC1.O=C(O)C(F)(F)F [Example 12, 4-[(4-chlorophenyl)methyl]-2-({(2R)-1-[3-oxo-3-(1-piperidinyl)propyl]-2-pyrrolidinyl}methyl)-1(2H)-phthalazinone, trifluoroacetate] | longer duration of action than azelastine
12 | CCOCCNC(=O)CCN1CCCC1Cn1nc(Cc2ccc(Cl)cc2)c2ccccc2c1=O.O=C(O)C(F)(F)F [Example 22, 3-((2R)-2-{[4-[(4-chlorophenyl)methyl]-1-oxo-2(1H)-phthalazinyl]methyl}-1-pyrrolidinyl)-N-[2-(ethyloxy)ethyl] propanamide, trifluoroacetate] | longer duration of action than azelastine
13 | COCCCC(=O)NCCN1CCC[C@@H]1Cn1nc(Cc2ccc(Cl)cc2)c2cnccc2c1=O [Example 70, N-[2-((2R)-2-{[4-[(4-chlorophenyl)methyl]-1-oxopyrido[3,4-d]pyridazin-2(1H)-yl]methyl}-1-pyrrolidinyl)ethyl]-4-(methyloxy)butanamide, trifluoroacetate] | longer duration of action than azelastine
14 | CC(C)c1noc(CCN2CCC[C@@H]2Cn2nc(Cc3ccc(Cl)cc3)c3ccccc3c2=O)n1.Cl [Example 61, 4-[(4-Chlorophenyl)methyl]-2-[((2R)-1-{2-[3-(1-methylethyl)-1,2,4-oxadiazol-5-yl]ethyl}-2-pyrrolidinyl)methyl]-1(2H)-phthalazinone, hydrochloride] | longer duration of action than azelastine
15 | COCCN(C)C(=O)CCN1CCC[C@@H]1Cn1nc(Cc2ccc(Cl)cc2)c2ccccc2c1=O.O=C(O)C(F)(F)F [Example 14, 3-((2R)-2-{[4-[(4-chlorophenyl)methyl]-1-oxo-2(1H)-phthalazinyl]methyl}-1-pyrrolidinyl)-N-methyl-N-[2-(methyloxy)ethyl] propanamide, trifluoroacetate] | longer duration of action than azelastine
16 | COCCNC(=O)CCCN1CCC[C@@H]1Cn1nc(Cc2ccc(Cl)cc2)c2ccccc2c1=O.O=CO [Example 24, Formic acid-4-((2R)-2-{[4-[(4-chlorophenyl)methyl]-1-oxo-2(1H)-phthalazinyl]methyl}-1-pyrrolidinyl)-N-[2-(methyloxy)ethyl] butanamide (1:1)] | longer duration of action than azelastine
